Source: patent publication US20030232884A1, “New pharmaceutical formulation” (Critical Therapeutics, Inc., priority 2002, published 2003)

Assay: Stability of ethyl pyruvate in three formulations as measured by pH change over time
Type: physicochemical
Method: Formulations comprising ethyl pyruvate at various concentrations ([…]) were prepared by dissolving ethyl pyruvate in either commercially available Ringer's Lactate solution (potassium chloride (0 to about 4 mM), sodium chloride (about 100 to about 156 mM), calcium chloride (about 2.5 mM to about 3.0 mM), and sodium lactate (about 25 mM to about 30 mM)) or Ringer-like solution (potassium chloride (0 to about 4 mM), sodium chloride (about 100 to about 156 mM) and calcium chloride (about 2.5 mM to about 3.0 mM)), or Intralipid™ (1 000 mL contain: purified soybean oil 100-300 g, purified egg phospholipids 12 g, glycerol anhydrous 22 g, water for injection q.s. ad 1 000 mL. pH was adjusted with sodium hydroxide to pH approximately 8. Osmolality was about 300 mOsm/kg water). Acidity of each solution was measured at 0, 5, 30 and 60 minutes, 2, 4, 24, and 48 hours after dissolution of ethyl pyruvate.

CCOC(=O)C(C)=O [Ethyl Pyruvate, ethyl pyruvate]
4.0: pH (Intralipid, EP 10 %, 24 h after dissolution) | pH (Intralipid, EP 10 %, 48 h after dissolution) | pH (Ringer' solution (no lactate), EP 5 %, 4 h after dissolution)
relatively reduced drop in pH: drop in pH (Lactated Ringers Balanced Salt Solution, 1%, 5% and 10% by weight, over a 48 hour period)
5.5: pH (Intralipid, EP 5 %, 24 h after dissolution) | pH (Intralipid, EP 10 %, 4 h after dissolution) | pH (Ringer' lactate, EP 1 %, 30 min after dissolution) | pH (Ringer' lactate, EP 1 %, 60 min after dissolution) | pH (Ringer' lactate, EP 5 %, 5 min after dissolution) | pH (Ringer' solution (no lactate), EP 1 %, 60 min after dissolution) | pH (Ringer' solution (no lactate), EP 1 %, 2 h after dissolution) | pH (Ringer' solution (no lactate), EP 1 %, 4 h after dissolution) | pH (Ringer' solution (no lactate), EP 1 %, 24 h after dissolution) | pH (Ringer' solution (no lactate), EP 1 %, 48 h after dissolution) | pH (Ringer' solution (no lactate), EP 10 %, 5 min after dissolution)
remains stable: stability as indicated by the pH readings (in Ringer's Lactate solution)
6.0: pH (Intralipid, EP 5 %, 60 min after dissolution) | pH (Intralipid, EP 5 %, 2 h after dissolution) | pH (Intralipid, EP 5 %, 4 h after dissolution) | pH (Intralipid, EP 10 %, 30 min after dissolution) | pH (Intralipid, EP 10 %, 60 min after dissolution) | pH (Intralipid, EP 10 %, 2 h after dissolution) | pH (Ringer' lactate, EP 1 %, 0 min after dissolution) | pH (Ringer' lactate, EP 1 %, 5 min after dissolution) | pH (Ringer' lactate, EP 5 %, 0 min after dissolution) | pH (Ringer' lactate, EP 10 %, 0 min after dissolution) | pH (Ringer' solution (no lactate), EP 5 %, 5 min after dissolution) | pH (Ringer' solution (no lactate), EP 5 %, 30 min after dissolution)
6.8: pH (Intralipid, EP 1 %, 0 min after dissolution) | pH (Intralipid, EP 1 %, 5 min after dissolution) | pH (Intralipid, EP 1 %, 30 min after dissolution) | pH (Intralipid, EP 5 %, 0 min after dissolution) | pH (Intralipid, EP 5 %, 5 min after dissolution) | pH (Intralipid, EP 10 %, 0 min after dissolution)
5.2: pH (Ringer' lactate, EP 1 %, 2 h after dissolution) | pH (Ringer' lactate, EP 1 %, 4 h after dissolution) | pH (Ringer' lactate, EP 1 %, 24 h after dissolution) | pH (Ringer' lactate, EP 1 %, 48 h after dissolution) | pH (Ringer' lactate, EP 5 %, 60 min after dissolution) | pH (Ringer' lactate, EP 5 %, 2 h after dissolution) | pH (Ringer' lactate, EP 5 %, 4 h after dissolution) | pH (Ringer' lactate, EP 5 %, 24 h after dissolution) | pH (Ringer' lactate, EP 5 %, 48 h after dissolution) | pH (Ringer' lactate, EP 10 %, 60 min after dissolution) | pH (Ringer' lactate, EP 10 %, 2 h after dissolution) | pH (Ringer' lactate, EP 10 %, 4 h after dissolution) | pH (Ringer' lactate, EP 10 %, 24 h after dissolution) | pH (Ringer' solution (no lactate), EP 5 %, 60 min after dissolution) | pH (Ringer' solution (no lactate), EP 5 %, 2 h after dissolution) | pH (Ringer' solution (no lactate), EP 10 %, 60 min after dissolution) | pH (Ringer' solution (no lactate), EP 10 %, 2 h after dissolution)
5.3: pH (Ringer' lactate, EP 5 %, 30 min after dissolution) | pH (Ringer' lactate, EP 10 %, 5 min after dissolution) | pH (Ringer' lactate, EP 10 %, 30 min after dissolution) | pH (Ringer' solution (no lactate), EP 10 %, 30 min after dissolution)
6.5: pH (Intralipid, EP 1 %, 60 min after dissolution) | pH (Intralipid, EP 1 %, 2 h after dissolution) | pH (Intralipid, EP 1 %, 4 h after dissolution) | pH (Intralipid, EP 1 %, 24 h after dissolution) | pH (Intralipid, EP 1 %, 48 h after dissolution) | pH (Intralipid, EP 5 %, 30 min after dissolution) | pH (Intralipid, EP 10 %, 5 min after dissolution) | pH (Ringer' solution (no lactate), EP 1 %, 0 min after dissolution) | pH (Ringer' solution (no lactate), EP 1 %, 5 min after dissolution) | pH (Ringer' solution (no lactate), EP 1 %, 30 min after dissolution) | pH (Ringer' solution (no lactate), EP 5 %, 0 min after dissolution) | pH (Ringer' solution (no lactate), EP 10 %, 0 min after dissolution)
5.0: pH (Intralipid, EP 5 %, 48 h after dissolution) | pH (Ringer' lactate, EP 10 %, 48 h after dissolution)
2.0: pH (Ringer' solution (no lactate), EP 5 %, 24 h after dissolution) | pH (Ringer' solution (no lactate), EP 5 %, 48 h after dissolution) | pH (Ringer' solution (no lactate), EP 10 %, 4 h after dissolution) | pH (Ringer' solution (no lactate), EP 10 %, 24 h after dissolution) | pH (Ringer' solution (no lactate), EP 10 %, 48 h after dissolution)
